Results on twelve compounds are retold here after ChEMBL document CHEMBL4819130 (Bioorg Med Chem, 2021).

Structures are written as SMILES. Active and inactive are the calls of the source. The calls are words filed in the database; no cut-off is given here.

Data set [1] deals with 3T3-L1. Nature of the data set: Inhibition of adipogenesis in mouse 3T3-L1 cells assessed as reduction in lipid droplet formation at 10 uM incubated with compound for 72 hrs in presence of adipogenesis-inducing agent followed by culturing in normal medium in presence of compound for 48 hrs by Oil red O staining based analysis. The class given is functional, cell-based. Particulars: time 120.0 hrs.

The test system of a further data set is HepG2. Nature of the data set: Cytotoxicity against human HepG2 cells assessed as reduction in cell viability at <40 uM after 48 hrs by CCK8 assay. The class given is cell-based. As to conditions: hepg2, 48 h. (In general: Tetrazolium dyes change colour on reduction, which living cells bring about.)
In data set [2] the test system is 3T3-L1. Nature of the data set: Cytotoxicity against mouse 3T3-L1 cells assessed as reduction in cell viability at <40 uM after 48 hrs by CCK8 assay. It counts as cell-based. As to conditions: 3t3-l1, 48 h.
For another data set, the system named is Caco-2. Nature of the data set: Cytotoxicity against human Caco-2 cells assessed as reduction in cell viability at <40 uM after 48 hrs by CCK8 assay. The class given is cell-based. Particulars: caco-2, 48 h.
The subject of data set [3] is 3T3-L1. Description: Inhibition of adipogenesis in mouse 3T3-L1 cells assessed as reduction in lipid droplet formation at 40 uM incubated with compound for 72 hrs in presence of adipogenesis-inducing agent followed by culturing in normal medium in presence of compound for 48 hrs by Oil red O staining based analysis. It counts as functional, cell-based. As to conditions: time 120.0 hrs.

Another data set concerns the target T1, Cocaine esterase (Homo sapiens, UniProt O00748).
T1 sequence (O00748 whole entry): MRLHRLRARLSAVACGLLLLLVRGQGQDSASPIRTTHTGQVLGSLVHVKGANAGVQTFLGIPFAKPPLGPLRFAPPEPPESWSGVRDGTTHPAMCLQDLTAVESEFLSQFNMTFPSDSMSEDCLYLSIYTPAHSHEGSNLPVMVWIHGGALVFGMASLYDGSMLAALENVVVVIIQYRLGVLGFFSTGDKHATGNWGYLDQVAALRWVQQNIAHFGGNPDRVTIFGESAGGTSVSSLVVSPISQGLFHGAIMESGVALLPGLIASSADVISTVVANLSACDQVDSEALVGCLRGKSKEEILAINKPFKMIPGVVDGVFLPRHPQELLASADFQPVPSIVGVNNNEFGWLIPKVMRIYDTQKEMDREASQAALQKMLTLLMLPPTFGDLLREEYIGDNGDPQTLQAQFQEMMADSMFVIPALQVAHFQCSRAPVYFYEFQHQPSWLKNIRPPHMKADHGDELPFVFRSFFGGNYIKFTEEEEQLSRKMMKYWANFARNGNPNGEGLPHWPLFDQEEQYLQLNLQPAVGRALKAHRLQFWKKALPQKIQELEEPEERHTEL
Nature of the data set: Inhibition of CES2 in human liver microsomes assessed as reduction in substrate hydrolysis using fluorescein diacetate as substrate preincubated for 3 mins followed by substrate addition and measured after 20 mins by fluorescence analysis. On the technique in general: Liver microsomes are a subcellular fraction often used to study metabolism.

In the case of `Cc1ccc(CC2C(=O)N(C3CCCCC3)N=C2c2ccc(C)cc2)cc1` (stereo unspecified), the inhibition entry with 3T3-L1 [1] and with 3T3-L1 [3] was “Active” each time. Further, the Activity result in the data set with HepG2, with 3T3-L1 [2] and with Caco-2 was “Non-Toxic” in each case.

One may read the IC50 as the point on the concentration scale where inhibition reaches its midpoint. Regarding `COc1ccc(CC2C(=O)N(c3ccccc3)N=C2c2ccccc2)cc1` (stereo unspecified), on Cocaine esterase, the concentration for half-maximal inhibition (IC50) is 6.68 µM.

On to `O=C1C(Cc2ccccc2)C(c2ccc(Br)cc2)=NN1c1ccccc1` (stereo unspecified), for which, on Cocaine esterase, the 50% inhibitory concentration (IC50) is 6.19 µM.

On to `Cc1ccc(C2=NN(c3ccccc3)C(=O)C2Cc2ccccc2)cc1` (stereo unspecified), for which the concentration for half-maximal inhibition (IC50) at Cocaine esterase amounted to 3.82 µM.

With `Cc1ccc(CC2C(=O)N(c3ccccc3)N=C2c2ccccc2)cc1` (stereo unspecified), the half-maximal inhibitory concentration (IC50) at Cocaine esterase stood at 5.16 µM.

For the compound `O=C1C(Cc2ccccc2[N+](=O)[O-])C(c2ccccc2)=NN1c1ccccc1` (stereo unspecified), on Cocaine esterase, the concentration for half-maximal inhibition (IC50) amounted to 10.9 µM.

Regarding `CCCCCCCC/C=C\CCCCCCCC(=O)OCC(O)COP(=O)(O)O` (stereo unspecified), the concentration for half-maximal inhibition (IC50) at Cocaine esterase turned out to be 1.57 µM.

As to `O=C1C(Cc2ccc(Br)cc2)C(c2ccccc2)=NN1c1ccccc1` (stereo unspecified), the IC50 on Cocaine esterase stood at 8.24 µM.

On to `Cc1cccc(CC2C(=O)N(c3ccccc3)N=C2c2ccccc2)c1` (stereo unspecified), for which, on Cocaine esterase, the IC50 is 7.11 µM.

`CCC1C(=O)N(c2ccccc2)N=C1c1ccccc1` (stereo unspecified): at Cocaine esterase, the concentration for half-maximal inhibition (IC50) turned out to be 9.04 µM.

As for `C=CCC1C(=O)N(c2ccccc2)N=C1c1ccccc1` (stereo unspecified), the IC50 at Cocaine esterase turned out to be 7.76 µM.

For `O=C1C(Cc2ccccc2)C(c2ccccc2)=NN1C1CCCCC1` (stereo unspecified), the IC50 on Cocaine esterase stood at 9.12 µM.
